Each structure is given as a SMILES string.

This experiment addresses T1, human TG2 (Homo sapiens, UniProt P21980).
T1 sequence (P21980 1-687): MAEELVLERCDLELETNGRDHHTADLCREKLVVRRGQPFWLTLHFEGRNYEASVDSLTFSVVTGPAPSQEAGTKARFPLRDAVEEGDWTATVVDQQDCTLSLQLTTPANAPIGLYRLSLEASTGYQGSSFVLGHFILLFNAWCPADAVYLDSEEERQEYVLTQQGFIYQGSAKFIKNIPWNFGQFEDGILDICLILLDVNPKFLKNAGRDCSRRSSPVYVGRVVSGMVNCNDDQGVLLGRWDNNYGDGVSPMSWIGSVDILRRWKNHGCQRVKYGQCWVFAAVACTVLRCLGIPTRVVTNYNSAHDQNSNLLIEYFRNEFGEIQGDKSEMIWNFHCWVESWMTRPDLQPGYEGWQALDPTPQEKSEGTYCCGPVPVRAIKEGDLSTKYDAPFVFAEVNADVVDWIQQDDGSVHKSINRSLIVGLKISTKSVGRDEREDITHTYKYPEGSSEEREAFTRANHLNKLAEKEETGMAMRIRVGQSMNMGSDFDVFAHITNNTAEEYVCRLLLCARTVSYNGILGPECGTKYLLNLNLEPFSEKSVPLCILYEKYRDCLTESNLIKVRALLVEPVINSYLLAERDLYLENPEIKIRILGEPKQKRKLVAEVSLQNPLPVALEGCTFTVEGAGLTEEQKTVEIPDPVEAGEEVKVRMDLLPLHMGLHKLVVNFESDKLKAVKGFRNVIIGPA
Kind of experiment: fluorescent screening assay for human TG2. As to conditions: Table 7; 20 nM TG2, 37° C.; read-out: IC50. In kind it is biochemical. On the procedure: The fluorescent screening assay for human TG2 was performed as described herein: Assay conditions were 20 nM TG2, 8 μM N,N-dimethylated Casein (NMC) and 16 μM K×D (used for all transglutaminase assays) in 25 mM Hepes, pH 7.4, 250 mM NaCl, 2 mM MgCl2, 0.5 mM CaCl2, 0.2 mM DTT, 0.05% Pluronic F-127 at 37° C. A time point was taken with a microplate reader (Safire or Ultra, Tecan; ex: 350 nm, em: 535 nm) every 3 minutes for up to 2 hours and the initial linear reaction progress was used to determine the reaction velocity as a measure for enzyme activity. Assay conditions were identical for human TG6 and similar for human TG1 and mouse TG2 apart from enzyme concentration (mTG2 at 5 nM; TG1 at 10 nM) and CaCl2 concentration (0.2 mM for mTG2; 0.05 mM for TG1). Factor XIIIa was activated using 0.1 μg/μl thrombin (Sigma) in 35 mM Tris pH 8.0 for 20 min at 30° C. and the transamidation reaction was performed with 20 nM Factor XIIIa in 50 mM Tris pH 8.0, 1.25 mM CaCl2, 0.05% Pluronic, 0.2 mM DTT. TG3 was activated with 0.02 μg/μl thrombin under the same conditions as Factor XIIIa and assay conditions were 10 nM TG3 in 50 mM Hepes, pH 8, 20 mM CaCl2, 0.2 mM DTT, 0.05% Pluronic F-127.

For `C=CC(=O)NCCCC[C@H](NC(=O)OCc1ccc(C(C)(C)C)cc1)C(=O)O` [(2S)-2-({[(4-tert-butylphenyl)methoxy]carbonyl}amino)-6-(prop-2-enamido)hexanoic acid], the IC50 was 1000 to 100000 nM.

Regarding `C=CC(=O)NCCCC[C@H](NC(=O)OCc1ccccc1)C(=O)N1CCOCC1` [benzyl N-[(2S)-1-(morpholin-4-yl)-1-oxo-6-(prop-2-enamido)hexan-2-yl]carbamate], the IC50 lay within 100 to 1000 nM.

As for `C=CC(=O)NCCCC[C@H](NC(=O)OCc1ccc2ccccc2c1)C(=O)O` [(2S)-2-{[(naphthalen-2-ylmethoxy)carbonyl]amino}-6-(prop-2-enamido)hexanoic acid], the IC50 was in the range of 1000 to 100000 nM.

`C=CC(=O)NCCCC[C@H](NC(=O)OCc1ccccc1)C(=O)N1CCN(C(=O)OC(C)(C)C)CC1` [tert-butyl 4-[(2S)-2-{[(benzyloxy)carbonyl]amino}-6-(prop-2-enamido)hexanoyl]piperazine-1-carboxylate]: the IC50 was in the range of 100 to 1000 nM.

As for `C=CC(=O)NCCCC[C@H](NC(=O)OCc1ccccc1)C(=O)N1CCN(C(=O)C2CCOCC2)CC1` [benzyl N-[(2S)-1-[4-(oxane-4-carbonyl)piperazin-1-yl]-1-oxo-6-(prop-2-enamido)hexan-2-yl]carbamate], the IC50 fell in the range of 100 to 1000 nM.

As for `C=CC(=O)NCCCC[C@@H](NC(=O)OCc1ccccc1)C(=O)O` [(2R)-2-{[(benzyloxy)carbonyl]amino}-6-(prop-2-enamido)hexanoic acid], the IC50 is 1000 to 100000 nM.

With `C=CC(=O)NCCCC[C@H](NC(=O)OCc1ccccc1)C(=O)N1CCN(c2ncccc2C)CC1` [benzyl N-[(2S)-1-[4-(3-methylpyridin-2-yl)piperazin-1-yl]-1-oxo-6-(prop-2-enamido)hexan-2-yl]carbamate], the IC50 fell in the range of 100 to 1000 nM.

Take `C=CC(=O)NCCCC[C@@H](CO)NC(=O)OCc1ccccc1` [benzyl N-[(2S)-1-hydroxy-6-(prop-2-enamido)hexan-2-yl]carbamate]: the IC50 lay in the range of 1000 to 100000 nM.

Take `C=CC(=O)Nc1ccc(C[C@H](NC(=O)OCc2ccccc2)C(=O)O)cc1` [(2S)-2-{[(benzyloxy)carbonyl]amino}-3-[4-(prop-2-enamido)phenyl]propanoic acid]: the IC50 lay in the range of 1000 to 100000 nM.

`C=CC(=O)NCCCC[C@H](NC(=O)OCc1ccccc1)C(=O)N1CCN(c2ncccc2C(F)(F)F)CC1` [benzyl N-[(2S)-1-oxo-6-(prop-2-enamido)-1-{4-[3-(trifluoromethyl)pyridin-2-yl]piperazin-1-yl}hexan-2-yl]carbamate]: the IC50 was 100 to 1000 nM.

Turning to `C=CC(=O)NCCCC[C@H](NC(=O)OCc1c(F)cccc1F)C(=O)O` [(2S)-2-({[(2,6-difluorophenyl)methoxy]carbonyl}amino)-6-(prop-2-enamido)hexanoic acid], the IC50 fell in the range of 1000 to 100000 nM.

`C=CC(=O)NCCCC[C@H](NC(=O)OCc1ccccc1)C(=O)N1CCN(c2cc(Cl)ccc2OC)CC1` [benzyl N-[(2S)-1-[4-(5-chloro-2-methoxyphenyl)piperazin-1-yl]-1-oxo-6-(prop-2-enamido)hexan-2-yl]carbamate]: the IC50 was under 100 nM.

As for `C=CC(=O)NCCCC[C@H](NC(=O)OCc1ccccc1)C(=O)N1CCN(c2ccc3ccccc3c2)CC1` [benzyl N-[(2S)-1-[4-(naphthalen-2-yl)piperazin-1-yl]-1-oxo-6-(prop-2-enamido)hexan-2-yl]carbamate], the IC50 is 100 to 1000 nM.

In the case of `C=CC(=O)NCCCC[C@H](NC(=O)OCc1ccccc1)C(=O)N1CCCCC1` [benzyl N-[(2S)-1-oxo-1-(piperidin-1-yl)-6-(prop-2-enamido)hexan-2-yl]carbamate], the IC50 was 1000 to 100000 nM.

`C=CC(=O)NCCCC[C@H](NC(=O)OCc1ccc(F)cc1)C(=O)O` [(2S)-2-({[(4-fluorophenyl)methoxy]carbonyl}amino)-6-(prop-2-enamido)hexanoic acid]: the IC50 fell in the range of 1000 to 100000 nM.

With `C=CC(=O)NCCCC[C@H](NC(=O)OCc1ccccc1)C(=O)N1Cc2ccccc2C1` [benzyl N-[(2S)-1-(2,3-dihydro-1H-isoindol-2-yl)-1-oxo-6-(prop-2-enamido)hexan-2-yl]carbamate], the IC50 lay within 100 to 1000 nM.

Consider `C=CC(=O)NCCCC[C@H](NC(=O)OCc1ccc(CCCC)cc1)C(=O)O` [(2S)-2-({[(4-butylphenyl)methoxy]carbonyl}amino)-6-(prop-2-enamido)hexanoic acid], for which the IC50 was in the range of 1000 to 100000 nM.

`C=CC(=O)NCCC1C[C@@H](C(=O)OC)N(C(=O)OC(C)(C)C)C1` (stereo partly drawn) [1-tert-butyl 2-methyl (2S)-4-[2-(prop-2-enamido)ethyl]pyrrolidine-1,2-dicarboxylate]: the IC50 lay within 1000 to 100000 nM.

The values are drawn from patent US20150232420A1, “TRANSGLUTAMINASE TG2 INHIBITORS, PHARMACEUTICAL COMPOSITIONS, AND METHODS OF USE THEREOF” (priority 2012, published 2015).
